Source: patent US20260232740A1, “COMBINATIONS COMPRISING VITAMIN B2 AND LACTOBACILLUS RHAMNOSUS” (DSM IP Assets B.V., priority 2022, published 2026)

How the values were obtained:
Bifidobacteriaceae = assay: Long-term SHIME fermentation (colon model), 16S rRNA gene sequencing: relative abundance of Bifidobacteriaceae in mucus of transverse colon; set-up: species or system human; conditions: relative abundance (%), end of three-week treatment vs end of control period (n=3), probiotic 1*1010 CFU/reactor, vitamin B2 10 mg/day, p<0.05
Description: (§1) The typical reactor setup of the SHIMER, representing the gastrointestinal tract of the adult human, was described by Molly et al. (1993) Applied Microbiology and Biotechnology 39 (2): 254-258. Inoculum preparation, retention time, pH, temperature settings and reactor feed composition were previously described by Possemiers et al. (2004) FEMS Microbiol Ecol. 49 (3): 495-507. Compared to the typical setup of the SHIME, the long-term SHIME experiment used for this example included some adaptations. In one reactor, at first, the conditions of the stomach were simulated, before being changed by the computer to conditions simulating the small intestine. […]
(§2) Samples for quantitative 16S-targeted Illumina sequencing were collected 3×/week during the last week of the control and treatment period. […] The obtained high-resolution proportional phylogenetic information (i.e., proportional abundances (%)) was combined with an accurate quantification of total bacterial cells via flow cytometry to obtain quantitative data at phylum, family, and species level. […] Samples were analyzed on a BD Facsverse (BDBiosciences, Erembodegem, Belgium) using the high-flow-rate setting and bacteria were separated from medium debris and signal noise by applying a threshold level of 200 on the SYTO channel. […]

[1] = system: Bifidobacterium adolescentis; assay: Long-term SHIME fermentation (colon model), 16S rRNA gene sequencing and flow cytometry: levels of Bifidobacterium adolescentis in lumen of transverse colon; set-up: species or system human; conditions: average levels (log cells/mL), end of three-week treatment vs end of control period (n=3), probiotic 1*1010 CFU/reactor, vitamin B2 10 mg/day, p<0.05
Description: as §1, §2

## Lactobacillus rhamnosus GG
Bifidobacteriaceae
  abundance of Bifidobacteriaceae compared to the control: did not significantly change
[1]
  abundance of Bifidobacterium adolescentis compared to the control: did not significantly change
